# “Also recorded” adds a separate entry of the source.
# Columns and labels:
# [1] = tested on: IL-8 secretion from MKN-28 cells co-cultured with H. pylori; test: IL-8 secretion, real-time RT-PCR; format: cell-based; settings: 4×MIC, 1.0 μg/mL, 24 hour incubation, H. pylori infected MKN-28 cells
# Experimental: Real-Time (RT-PCR) was carried out to determine whether niclosamide has an inhibitory role in IL-8 secretion. MKN-28 cells were co-cultured with H. pylori (MOI=100) in the presence or absence of a test compound. At 24 hours, RNA was isolated from the infected host cells. cDNA was synthesized using the Verso cDNA (Invitrogen) synthesis kit according to manufacturer instructions. Quantitative real-time reactions were carried out in a Bio-Rad iTaq universal SYBR (Bio-Rad, Hercules, Calif. USA) one-step kit and a CFX98 real-time PCR cycler as described by Zheng et al. (Future Med. Chem. 2018, February; 10(3):283-296). The relative gene expression was calculated from Cq values using a ΔΔCq method.
# [2] = tested on: H. pylori (strain 60190); test: Effect of pH on MIC (broth microdilution); format: cell-based, Helicobacter pylori
# Experimental: The pH was adjusted to acidic condition with 1 N HCl. The minimal bactericidal concentration (MBC) was determined by plating 5 μL of broth culture from the MIC assay onto Müller-Hinton agar (BD Biosciences) supplemented with 10% FBS. After 72 h, the lowest concentration at which colonies were not observed was reported as the MBC.
# [3] = tested on: H. pylori vacA gene expression; test: RT-PCR study on VacA toxin expression; format: cell-based, Helicobacter pylori; settings: sub-MIC level of 200 ng/mL, 3 days
# [4] = tested on: AGS cells co-cultured with H. pylori (strain 60190); test: Light microscopy imaging for vacuolation; format: cell-based; settings: sub-MIC (0.2 μg/mL), 24 h, MOI of 100
# Experimental: H. Pylon bacteria secrete VacA toxin via a type V secretion system (Galmiche et al. Gut Microbes. 2010 November-December; 1(6):392-5. 44). This toxin binds to host gastric epithelial cells and its internalization leads to vacuolation, characterized by the accumulation of large vacuoles in gastric epithelial cells during the infection process. AGS cells were harvested and seeded into a 6 well plate at a concentration of 5×10^5 cells, 24 h before experimentation. H. Pylon bacteria (strain 60190) were harvested and washed with sterile PBS and co-cultured with AGS at a MOI of 100. After incubation for 24 h, the cells were washed, magnified under a microscope, and examined for vacuolation. […] After 3 days, the bacteria were washed and treated with TRIZOL (Invitrogen, Carlsbad, Calif., USA), and the RNA concentration was determined using a NanoVue Plus spectrophotometer (GE Healthcare, Fairfield, Conn., USA). PCR amplifications were performed, and the products were analysed by gel electrophoresis (1.0% agarose) containing SYBR® Safe (Invitrogen). Gel images were captured and analysed using the Quantity One System.
# [5] = tested on: H. pylori reference strain 60190 (ATCC 49503); test: Broth microdilution assay, MIC; format: cell-based; settings: Helicobacter pylori, ATCC49503, 72 h; H. pylori strain 60190; Müller-Hinton broth + 10% FBS, 3 days
# [6] = tested on: H. Pylori 49503; test: Broth microdilution assay, MIC; format: cell-based; settings: Helicobacter pylori; strain H. Pylori 49503
# [7] = tested on: H. Pylori 43504; test: Broth microdilution assay, MIC; format: cell-based; settings: Helicobacter pylori; strain H. Pylori 43504
structure (smiles),measurement,setting,value
"O=C(Nc1ccc([N+](=O)[O-])cc1Cl)c1cc(Cl)ccc1O [Niclosamide, niclosamide]",effect on IL-8 secretion,[1],inhibited IL-8 secretion
same,MIC,"[2]; Helicobacter pylori, acidic pH, tested between pH 7.0 to 5.2, read-out: MIC in low pH",0.25 µg/mL
same,change of MIC at acidic pH compared to pH 7.0,[2]; pH 7.0 to 5.2,remained the same
same,effect on VacA expression compared to housekeeping gene rpoB,[3],down-regulated vacA gene; also recorded: downregulates VacA expression
same,effect on vacuolation of AGS cells,[4],prevented vacuolation
same,MIC,[5],0.25 µg/mL
same,MIC,[6],0.25 µg/mL
same,MIC,[7],0.125 µg/mL

# From patent US11419834B2, “Methods for treating diseases or infections caused by or associated with H. pylori using a halogenated salicylanilide” (Rhode Island Hospital, priority 2019, dated 2022)
